Data: paper PMC3578785, “Improved BM212 MmpL3 Inhibitor Analogue Shows Efficacy in Acute Murine Model of Tuberculosis Infection” (PLoS ONE, 2013)

Tests used:
[1] = system: M. tuberculosis H37Rv and mmpL3 mutants DR1-DR9; assay type: cell-based
[2] = system: M. bovis BCG and mmpL3 mutants M1, M8; assay type: cell-based

SMILES	MIC for M. tuberculosis mutants with amino acid change V681I [1]	MIC for M. tuberculosis isolates resistant to compound 8 [1]	MIC for M. bovis BCG mutants resistant to compound 8 [2]
Cc1ccc(-c2cc(CN3CCOCC3)c(C)n2-c2ccc(F)cc2)cc1 [Compound 5, 2-Methyl-3-[(morpholin-4-yl)-methyl]-5-[4-(methyl)phenyl]-1-[4-(fluoro)phenyl]-1H-pyrrole]	5.4 µM		
CCc1ccc(-c2cc(CN3CCOCC3)c(C)n2-c2ccc(F)cc2)cc1 [Compound 8, 2-Methyl-3-[(morpholin-4-yl)-methyl]-5-[4-(ethyl)phenyl]-1-[4-(fluoro)phenyl]-1H-pyrrole]		0.66 µM	0.63 µM
